Measurements as given in patent publication US11384381B2, “Reaction accelerating agent” (Kikkoman Corporation, priority 2016, dated 2022).

Columns and labels:
CFP-DH4 (A1cOX) = assay: Acceleration of HbA1c detection reaction with small amount of A1cOX (Example 5); assay type: biochemical; conditions: 0.04% (w/v) compound, 1.1 mg/ml CFP-DH4; for effect of accelerating the HbA1c detection reaction: versus not added; for Degree of progression of reaction (%) after 7.5 minutes / Degree of progression of reaction (%) after 10 minutes: HbA1c detection reaction, ΔA/ΔA100%; for Degree of progression of reaction (%) after 7.5 minutes: 2.5 minutes after addition of second reagent, not added: 51; for Degree of progression of reaction (%) after 10 minutes: 5 minutes after addition of second reagent, not added: 73
Description: Next, in this Example, the degree of acceleration of HbA1c detection reaction by the compound of the present invention was determined using a small amount of A1cOX.
A reagent for HbA1c measurement having the following composition was prepared, and the measurement of HbA1c was carried out using Bio Majesty JCA-BM1650 (manufactured by JEOL Ltd.).
Blood cells (10.4% HbA1c (NGSP value))
30 mM MOPS-NaOH buffer solution, pH 6.5
0.2% (w/v) n-dodecyl-3-D-maltoside (manufactured by Dojindo Laboratories)
(§1) 10 U/ml peroxidase PEO-301 (Toyobo Co., Ltd.)
(§2) 0.023 mM 10-(carboxymethylaminocarbonyl)-3,7-bis(dimethylamino)phenothiazine sodium (DA-67, manufactured by Wako Pure Chemical Industries, Ltd.)
0.04% (w/v) of the compound of Comparative Example 2, any one compound of the present invention, or compound-free (Comparative Example 1) ion-exchange water as shown in Table 2
10 mM MOPS-NaOH buffer solution, pH 6.5
1.1 mg/ml CFP-DH4 (A cOX)
8 μl of the sample diluted 51-fold with ion-exchange water was added to 96 μl of the first reagent, and the mixture was incubated at 37° C. for 5 minutes. Then, 24 μl of the second reagent-B was added thereto, and the quantitative reaction of hydrogen peroxide resulting from the oxidation of the β-chain amino terminus of HbA1c was allowed to progress at 37° C. for 5 minutes. The absorbance ([…] and A751) of the reaction solution for light at wavelengths of 694 nm and 751 nm was measured over time for 10 minutes after the mixing of the diluted sample with the first reagent to determine the value of subtraction of A751 from A694, i.e., the value A694/751. Subsequently, ΔA was calculated by subtracting, from A694/751, the value of (104/128) times A694/751 4.8 minutes after the mixing of the diluted sample with the first reagent. Incidentally, […] after the mixing of the diluted sample with the first reagent represents the time immediately before the addition of the second reagent-B.
Next, ΔA calculated in this Example was divided by ΔA100% defined in Example 4 to calculate the degree of progression of HbA1c detection reaction. The degree of progression of HbA1c detection reaction 7.5 and 10 minutes after the mixing of the diluted sample with the first reagent (in other words, 2.5 and 5 minutes after the addition of the second reagent-B) is shown in Table 2.

[1] = system: sarcosine oxidase (SOD-TE); assay: Sarcosine detection reaction completed with excess sarcosine oxidase (Example 10); assay type: biochemical; conditions: 0.04% (w/v) compound, 123 U/ml SOD-TE (excess), 32 μM sarcosine, pH 8.0, 37° C.; for ΔA9 min: change in A694-A751 9 minutes after mixing; for ΔA10 min: change in A694-A751 10 minutes after mixing, defined as ΔA100%
Description: In this Example, the amount of change in absorbance is determined when the detection reaction of the substrate sarcosine (N-methylglycine) was completed using an excess amount of sarcosine oxidase (SOD-TE), which is an oxidase.
A reagent for sarcosine measurement having the following composition was prepared, and the measurement of sarcosine using sarcosine oxidase was carried out using Bio Majesty JCA-BM 1650 (manufactured by JEOL Ltd.).
32 μM sarcosine (manufactured by Wako Pure Chemical Industries, Ltd.)
30 mM MOPS-NaOH buffer solution, pH 8.0
0.2% (v/v) NP-10 (manufactured by HELM)
as §1, §2
0.04% (w/v) of the compound of Comparative Example 2, any one compound of the present invention, or compound-free (Comparative Example 1) ion-exchange water as shown in Table 1
10 mM MOPS-NaOH buffer solution, pH 8.0
123 U/ml SOD-TE (manufactured by Kikkoman Biochemifa Company)
8 μl of the sample was added to 96 μl of the first reagent-D, and the mixture was incubated at 37° C. for 5 minutes. Then, 24 μl of the second reagent-G was added thereto, and the quantitative reaction of hydrogen peroxide resulting from the oxidation of sarcosine was allowed to progress at 37° C. for 5 minutes. The absorbance (A694 and A751) of the reaction solution for light at wavelengths of 694 nm and 751 nm was measured over time for 10 minutes after the mixing of the sample with the first reagent-D to determine the value of subtraction of A751 from A694, i.e., the value A694/751. Subsequently, ΔA was calculated by subtracting, from A694/751, the value of (104/128) times […] 4.8 minutes after the mixing of the sample with the first reagent-D. Incidentally, 4.8 minutes after the mixing of the sample with the first reagent-D represents the time immediately before the addition of the second reagent-G. ΔA 9 minutes and 10 minutes after the mixing of the diluted sample with the first reagent-D (ΔA9min and ΔA10min) are shown in Table 7.
In other words, it can be recognized that the quantitative reaction of sarcosine, i.e., the quantitative reaction of hydrogen peroxide resulting from the oxidation of sarcosine, was completed in 10 minutes after the mixing of the diluted sample with the first reagent-D. Accordingly, in Examples 10 and 11, ΔA10min in each Comparative Example or the present invention was defined as ΔA when 100% of the quantitative reaction of sarcosine progressed under each condition (ΔA100%).

Row | Compound | effect of accelerating the HbA1c detection reaction (CFP-DH4 (A1cOX)) | Degree of progression of reaction (%) after 7.5 minutes (CFP-DH4 (A1cOX)) [%] | Degree of progression of reaction (%) after 10 minutes (CFP-DH4 (A1cOX)) [%] | ΔA9 min [1] | ΔA10 min [1]
1 | Cc1nn(-c2cc(S(=O)(=O)[O-])ccc2Cl)c(O)c1N=Nc1ccccc1.[Na+] [Acid Yellow 34] | effect of accelerating the HbA1c detection reaction | 75 | 95 | – | –
2 | O=S(=O)([O-])c1cccc(N=Nc2ccc(Nc3ccccc3)cc2)c1.[Na+] [Acid Yellow 36] | effect of accelerating the HbA1c detection reaction | 53 | 81 | – | –
3 | O=C([O-])c1cc(N=Nc2cccc([N+](=O)[O-])c2)ccc1O.[Na+] [Alizarin Yellow GG] | effect of accelerating the HbA1c detection reaction | 76 | 91 | 0.197 | 0.197
4 | O=C(O)c1cc(N=Nc2ccc3cc(S(=O)(=O)O)ccc3c2)ccc1O.[Na] [Chrome Yellow] | effect of accelerating the HbA1c detection reaction | 53 | 77 | 0.186 | 0.186
5 | COc1cc(N=Nc2cccc(S(=O)(=O)[O-])c2)ccc1NC(=O)Nc1ccc(N=Nc2ccc(O)c(C(=O)[O-])c2)cc1.[Na+].[Na+] [Direct Yellow 44] | effect of accelerating the HbA1c detection reaction | 77 | 96 | 0.315 | 0.315
6 | COc1cc(N=Nc2ccc(N)cc2)c(C)cc1N [Disperse Diazo Black 3BF] | – | – | – | 0.156 | 0.156
7 | O=C([O-])c1cc(N=Nc2ccc([N+](=O)[O-])cc2)ccc1O.[Na+] [Mordant Orange 1] | effect of accelerating the HbA1c detection reaction | 80 | 94 | 0.327 | 0.328
8 | Acid Red 151 | effect of accelerating the HbA1c detection reaction | 55 | 80 | 0.212 | 0.212
9 | Xylene Fast Yellow 2G | effect of accelerating the HbA1c detection reaction | 58 | 83 | 0.158 | 0.158
